Results as given in article PMC11589570, “Critical assessment of LC3/GABARAP ligands used for degrader development and ligandability of LC3/GABARAP binding pockets” (Nature Communications, 2024).
Values joined by “and” are separate entries in the source; they are usually repeats but may differ in a detail not shown here. Identical values can stand only once.

Columns and labels:
Type in all cases: binding
KIF11 = target: T1, KIF11 (Homo sapiens, UniProt P52732); assay: Chemoproteomic competition pulldown assay (affinity matrix, LC-MS/MS) in HEK293T lysate; conditions: over 4000 proteins identified
T1 construct: endogenous in cells; host or cells: HEK293 / HEK293T (ATCC; CRL-11268) lysate
T1 sequence (P52732 1-1056): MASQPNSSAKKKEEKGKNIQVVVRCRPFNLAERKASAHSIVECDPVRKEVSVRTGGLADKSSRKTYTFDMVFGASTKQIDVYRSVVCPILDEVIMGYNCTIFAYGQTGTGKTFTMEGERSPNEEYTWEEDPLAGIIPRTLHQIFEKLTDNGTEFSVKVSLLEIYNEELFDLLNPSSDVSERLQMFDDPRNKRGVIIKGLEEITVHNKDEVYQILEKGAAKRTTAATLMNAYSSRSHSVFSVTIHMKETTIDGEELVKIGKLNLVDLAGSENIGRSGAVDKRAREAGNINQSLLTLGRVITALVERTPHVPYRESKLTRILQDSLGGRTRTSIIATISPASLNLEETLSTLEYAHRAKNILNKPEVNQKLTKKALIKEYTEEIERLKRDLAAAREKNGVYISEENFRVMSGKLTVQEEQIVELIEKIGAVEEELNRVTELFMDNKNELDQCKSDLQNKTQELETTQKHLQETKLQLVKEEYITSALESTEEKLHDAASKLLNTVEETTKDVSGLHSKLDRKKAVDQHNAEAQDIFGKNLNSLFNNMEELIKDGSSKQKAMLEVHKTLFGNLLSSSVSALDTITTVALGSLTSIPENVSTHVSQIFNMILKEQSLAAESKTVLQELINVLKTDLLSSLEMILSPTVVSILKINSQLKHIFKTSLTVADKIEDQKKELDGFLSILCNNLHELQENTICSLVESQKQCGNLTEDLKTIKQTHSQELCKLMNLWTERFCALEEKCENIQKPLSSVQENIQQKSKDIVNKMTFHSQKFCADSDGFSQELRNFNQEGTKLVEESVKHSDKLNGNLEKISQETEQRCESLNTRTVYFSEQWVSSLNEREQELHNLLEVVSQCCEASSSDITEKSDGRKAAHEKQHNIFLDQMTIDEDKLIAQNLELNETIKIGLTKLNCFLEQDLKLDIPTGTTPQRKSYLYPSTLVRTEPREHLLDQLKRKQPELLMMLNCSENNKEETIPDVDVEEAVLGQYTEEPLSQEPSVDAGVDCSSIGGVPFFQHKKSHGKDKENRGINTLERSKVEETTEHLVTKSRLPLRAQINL

LC3/GABARAP = assay: as above; conditions: HEK293T cell lysate
Experimental: Preparation of Affinity Matrix 10O5 and 8F20: Compounds 18 and 19 (1 µM) were linked to DMSO-washed NHS-activated ( ~ […] beads) sepharose beads (1 mL) and triethylamine (20 µL) in DMSO (2 mL) on an end-over-end shaker overnight at RT in the dark. Aminoethanol (50 µL) was then added to inactivate the remaining NHS-activated carboxylic acid groups. […] Successful immobilization was controlled by LC-MS and Kaiser-test[46].
Preparation of cell lysates for affinity pulldown assays: HEK293 cells (ATCC; CRL-11268) were cultured in DMEM (PAN Biotech). All media were supplemented with 10% FBS (PAN Biotech) and cells were internally tested for Mycoplasma contamination. […] The protein amount of cell lysates was determined by Bradford assay and adjusted to a concentration of 5 mg/mL[46]. […]
LC-MSMS measurement of (competition) pulldown assays: Peptides were analyzed via LC-MS/MS on a Dionex Ultimate3000 nano HPLC coupled to an Orbitrap Fusion Lumos mass spectrometer, operated via the Thermo Scientific Xcalibur software. […]
The mass spectrometer was operated in data dependent mode, automatically switching between MS1 and MS2 spectra. […] Up to 12 peptide precursors were isolated (isolation width of 1.2 Th, maximum injection time of 75 ms, AGC value of 2e5), fragmented by HCD using 25 % […] normalized collision energy (NCE) and analyzed in the Orbitrap at a resolution of 15,000. […]

[1] = system: LC3/GABARAPs (human Atg8 family); assay: FP assay with Cy5-labelled p62 LIR tracer, statements on all LC3/GABARAPs
LC3A [2] = target: T2, LC3A (Homo sapiens, UniProt Q9H492); assay: Isothermal titration calorimetry (ITC); conditions: replicates 1-3, rebuttal letter
Source text: To minimize nonspecific dilution heat effects, DMSO concentrations in the protein and compound samples were matched. […] For this protocol, the chamber was pre-equilibrated with the protein, and the test compounds were titrated while continuously measuring the rate of exothermic heat evolution. The heat of binding was integrated, corrected, and fitted to an independent single-binding site model based on the manufacturer’s instructions, from which thermodynamic parameters (ΔH and TΔS), equilibrium association and dissociation constants (KA and KD, respectively), and stoichiometry (n) were calculated using TA Instruments NanoAnalyze software.

LC3A [3] = target: T2, LC3A; assay: Isothermal titration calorimetry (ITC); conditions: rounded, rebuttal letter; Novobiocin in reverse titration

## Cc1ccc(C(=O)N(CCCNC(=O)CCOCCOCCOCCN)[C@@H](c2nc3cc(Cl)ccc3c(=O)n2Cc2ccccc2)C(C)C)cc1 [compound 19, (R)-N-(1-amino-12-oxo-3,6,9-trioxa-13-azahexadecan-16-yl)-N-(1-(3-benzyl-7-chloro-4-oxo-3,4-dihydroquinazolin-2-yl)−2-methylpropyl)−4-methylbenzamide]
KIF11
  additional targets in proteome-wide pulldown: No additional targets were detected
LC3/GABARAP
  enrichment / pulldown of LC3/GABARAP by affinity matrix: did not enrich

## COc1ccc(/C=C/CCCCOc2ccc(C(=O)c3cccc(C(=O)O)c3)cc2CCC(=O)O)cc1 [compound 20]
[1]
  interaction with LC3/GABARAP family members in FP displacement assay: selective binding to LC3 family members
LC3A [2]; listed as LY223982
  Enthalpy (ITC, repeated titration): -11,64 kCal/mol and -9,814 kCal/mol
  Entropy (ITC, repeated titration): -12,88 Cal/(mol*K) and -16,4 Cal/(mol*K) and -10,29 Cal/(mol*K)
  Stoichiometry, n (ITC, repeated titration): 1,011 and 1,038 and 1,021
LC3A [2]; read-out: KD (ITC, repeated titration)
  Kd: 11.2 µM and 11.4 µM and 10 µM
LC3A [3]
  enthalpies observed in ITC experiments: -7 kcal/mol
